Results on nine molecules are retold here after paper PMC4503722, “Novel Phenotypic Outcomes Identified for a Public Collection of Approved Drugs from a Publicly Accessible Panel of Assays” (PLoS ONE, 2015).

For one test, the system named is NCI-H716 cells. Kind of test: cells. Format: cell-based, Human. The following applies: for hNCI-H716 GLP1 Secretion IC50/EC50: assay number 12; for IC50/EC50, hNCI-H716 GLP1 Secretion (assay number 12): concentration response.
The test system of another test is STC-1 cell line. In kind it is cell-based, mouse. The settings on record: for mSTC-1 GLP1 Secretion IC50/EC50: assay number 13; for IC50/EC50, mSTC-1 GLP1 Secretion (assay number 13): concentration response.
Test [1] has as its system endothelial tube formation in co-cultures of ECFCs and ADSCs treated with VEGF. Kind of test: cells. Format: cell-based, human.
Another test concerns INS-1E cells. Kind of test: cells. Format: cell-based, rat. The following applies: 5 mM glucose; for 5mMGluc_INS1E SecretionMod IC50/EC50: assay number 8.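 On all read-outs here: secreted insulin quantified by homogeneous immunoassay.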
Test [2] concerns ECFC/ADSC co-culture cell nuclei number.

In the case of `Cc1ccc(O)cc1` [NCGC00091519-09], the “hNCI-H716 GLP1 Secretion IC50/EC50” value with NCI-H716 cells was greater than 40 µM. Further, the “mSTC-1 GLP1 Secretion IC50/EC50” value with STC-1 cell line is greater than 40 µM. In test [1], the “VEGF_ADSC\ECFC Angio CD31 TubeArea IC50/EC50” value was greater than 10 µM. For the same molecule, in the test with INS-1E cells, the “5mMGluc_INS1E SecretionMod IC50/EC50” value is given as greater than 33.33 µM. Besides, the “VEGF_ADSC\ECFC Angio Hoechst NucArea IC50/EC50” value in test [2] is reported as greater than 10 µM.

Turning to `CC(C)(C)CC(C)(C)c1ccc(O)c(Cc2ccc(Cl)cc2Cl)c1` [NCGC00095016-05], the “hNCI-H716 GLP1 Secretion IC50/EC50” value with NCI-H716 cells amounted to 9.073 µM. For the same molecule, in the test on STC-1 cell line, the “mSTC-1 GLP1 Secretion IC50/EC50” value came to 0.5436 µM. Further, in the test on INS-1E cells, the “5mMGluc_INS1E SecretionMod IC50/EC50” value is greater than 33.33 µM.

For `CCCCCN=C(N)N/N=C/c1c[nH]c2ccc(OC)cc12` [NCGC00095192-05], the “hNCI-H716 GLP1 Secretion IC50/EC50” value in the test on NCI-H716 cells is listed as 10.8586 µM. In the test with STC-1 cell line, the “mSTC-1 GLP1 Secretion IC50/EC50” value is on record as greater than 40 µM. Besides, in test [1], the “VEGF_ADSC\ECFC Angio CD31 TubeArea IC50/EC50” value came to 3.1318 µM. In addition, the “5mMGluc_INS1E SecretionMod IC50/EC50” value in the test on INS-1E cells worked out at 16.8442 µM. The “VEGF_ADSC\ECFC Angio Hoechst NucArea IC50/EC50” value in test [2] is recorded as 7.175 µM.

For `O=C1Nc2ccc(Cl)cc2[C@@](C#CC2CC2)(C(F)(F)F)O1` [NCGC00159337-04], in the test with NCI-H716 cells, the “hNCI-H716 GLP1 Secretion IC50/EC50” value is listed as 21.246 µM. In the test on STC-1 cell line, the “mSTC-1 GLP1 Secretion IC50/EC50” value is 2.476 µM. The “5mMGluc_INS1E SecretionMod IC50/EC50” value in the test with INS-1E cells is listed as 3.8674 µM.

Regarding `Cc1cc(OI)c(C(C)C)cc1-c1cc(C(C)C)c(OI)cc1C` [NCGC00159504-04], the “IC50/EC50, hNCI-H716 GLP1 Secretion (assay number 12)” value (“IC50/EC50, hNCI-H716 GLP1 Secretion” below) in the test with NCI-H716 cells is greater than 40 µM. Besides, the “IC50/EC50, mSTC-1 GLP1 Secretion (assay number 13)” value (shortened to “IC50/EC50, mSTC-1 GLP1 Secretion”) in the test on STC-1 cell line is given as 15.1081 µM. Besides, in test [1], the “IC50/EC50, VEGF_ADSC\ECFC Angio CD31 TubeArea (assay number 2)” value is on record as greater than 10 µM. Moreover, the “IC50/EC50, 5mMGluc_INS1E SecretionMod (assay number 8)” value (from here on “IC50/EC50, 5mMGluc_INS1E SecretionMod”) with INS-1E cells was greater than 33.33 µM. Moreover, in test [2], the “IC50/EC50, VEGF_ADSC\ECFC Angio Hoechst NucArea (assay number 3)” value is listed as greater than 10 µM.

Take `FC(F)(F)C(F)(F)C(F)(F)C(F)(F)C(F)(F)C(F)(F)C(F)(F)C(F)(F)Br` [NCGC00166217-02]: the “hNCI-H716 GLP1 Secretion IC50/EC50” value with NCI-H716 cells is on record as greater than 40 µM. The “mSTC-1 GLP1 Secretion IC50/EC50” value in the test on STC-1 cell line was greater than 40 µM. Moreover, the “5mMGluc_INS1E SecretionMod IC50/EC50” value in the test with INS-1E cells is listed as greater than 33.33 µM.

Regarding `C/C(=C(\CCOC(=O)C(C)C)SS/C(CCOC(=O)C(C)C)=C(/C)N(C=O)Cc1cnc(C)nc1N)N(C=O)Cc1cnc(C)nc1N` [NCGC00167456-02], in the test on NCI-H716 cells, the “hNCI-H716 GLP1 Secretion IC50/EC50” value was 2.3879 µM. In the test with STC-1 cell line, the “mSTC-1 GLP1 Secretion IC50/EC50” value is greater than 40 µM. In addition, the “5mMGluc_INS1E SecretionMod IC50/EC50” value in the test with INS-1E cells is given as greater than 33.33 µM.

Consider `CCOC(=O)c1ccccc1O` [NCGC00181161-03], for which the “IC50/EC50, hNCI-H716 GLP1 Secretion” value in the test with NCI-H716 cells was greater than 40 µM. In the test with STC-1 cell line, the “IC50/EC50, mSTC-1 GLP1 Secretion” value was greater than 40 µM. Moreover, the “IC50/EC50, 5mMGluc_INS1E SecretionMod” value in the test on INS-1E cells is on record as greater than 33.33 µM.

Turning to `Cc1cc(O)c2c(O)c3c(O)cccc3cc2c1` [NCGC00181774-02], the “IC50/EC50, hNCI-H716 GLP1 Secretion” value in the test on NCI-H716 cells is listed as greater than 20 µM. For the same molecule, the “IC50/EC50, mSTC-1 GLP1 Secretion” value in the test with STC-1 cell line came out at 11.3101 µM. Also, in test [1], the “IC50/EC50, VEGF_ADSC\ECFC Angio CD31 TubeArea (assay number 2)” value is on record as greater than 10 µM. For the same molecule, the “IC50/EC50, 5mMGluc_INS1E SecretionMod” value in the test with INS-1E cells is on record as greater than 33.33 µM. Besides, the “IC50/EC50, VEGF_ADSC\ECFC Angio Hoechst NucArea (assay number 3)” value in test [2] is on record as greater than 10 µM.
